Experimental data reported in patent US12433892B2, “Compositions and methods of treatment for neurological disorders comprising depression” (Gliapharm SA, priority 2018, dated 2025).
Counter-ions that a name gives are not always drawn.

Assays:
astrocytes [1] = assay: Intracellular glycogen quantification; assay type: cell-based, mouse; details: Prestwick hits; 10 uM, 3 h
C57Bl/6 mice [2] = assay: Grip strength test (GST); assay type: in vivo, mouse; details: 100 mg/kg per os, 1.5 hr
Protocol: (§1) The depression mouse model features wild-type C57Bl/6 laboratory mice without any transgenic changes. To ensure that the actions of the tested molecules in the animal models of depression are not due to effects on locomotor activity or muscle strength in animals, molecules are administered to mice that are then tested in the grip strength test (GST) and in the open-field test (OFT) following the protocols described in Carrard et al. (Carrard, Elsayed, Margineanu, Boury-Jamot, Frangiere, Meylan, Petit, Fiuemlli, Magistretti and Martin. Peripheral administration of lactate produces antidepressant-like effects. Molecular Psychiatry, 2016 Oct. 18, e-pub). If alterations in muscle strength and/or locomotor activity are measured following administration drug, no further analyses are performed with this molecule.
GST is a test used to identify molecules that could modulate mouse grip strength, which might affect results in the FST. 1.5 hr after a single oral molecules administration, mice are placed on a grid dynamometer and the muscle strength (N) or their two front paws or all their four paws is measured in 3 consecutive sessions, and the best score is recorded.

C57Bl/6 mice [3] = assay: Forced swim test (FST); assay type: in vivo, mouse; details: 100 mg/kg per os, 1.5 hr
Protocol: as §1
FST is a test used to identify molecules that produce an acute antidepressant-like behavioral response.
1.5 hr after a single oral (vehicle or lactate-enhancing molecules) or intraperitoneal (vehicle, fluoxetine or despratmine) administration, mice are placed in a cylindrical container filled to a depth of 15 cm with water (23-25° C.). 6-min swim session are videotaped, and time spent immobile, which reflects the animal depressive-like behavior, is scored subsequently by an experimenter blind to the conditions used.

[4] = In vivo pharmacokinetics (PFC microdialysis and plasma); parameters: species or system mouse; details: after gavage with 100 mg/kg
Protocol: Mice were anesthetized using isoflurane (2% and 800 mL/min O2). Before surgery, Finadyne (1 mg/kg, s.c.) was administered for analgesia during surgery and the post-surgical recovery period. A mixture of bupivacaine and epinephrine was used for local anesthesia of the incision site of the periost of the skull.
The animals were placed in a stereotaxic frame (Kopf instruments, USA). MetaQuant microdialysis probes with a 3 mm exposed polyacrylonitrile membrane (MQ-PAN 3/3, Brainlink, the Netherlands) were implanted into the prefrontal cortex (coordinates for the tip of the probe: AP=+2.0 mm (to bregma), lateral=−0.7 mm (to midline), ventral=−3.3 mm (to dura), with the incisor bar set at 0.0 mm and an angle of 8°). All coordinates were based on “The mouse brain in stereotaxic coordinates” by Paxinos and Franklin (2004). The probes were attached to the skull with a stainless steel screw and dental cement (Fuji Plus Capsules, Henry Schein, the Netherlands).
In the same surgical procedure, a catheter was placed into the jugular vein to accommodate blood sampling. An indwelling cannula was inserted into the right jugular vein, and exteriorized through an incision on top of the skull. The end of the jugular vein catheter was fixed in position with dental acrylic cement and attached to the skull with two stainless steel screws.
Experiments were initiated one day after surgery. The MetaQuant microdialysis probes were connected with flexible PEEK tubing (Western Analytical Products Inc. USA; PK005-020) to a microperfusion pump (CMA Microdialysis) and perfused with aCSF+0.2% BSA at a flow rate of 0.12 μL/min. Ultrapurified water+0.2% BSA was used as the carrier flow at a flow rate of 0.80 μL/min. After a minimum of 1.5 hours of prestabilization, microdialysis samples were collected in 30 minute intervals. Samples were collected into polystyrene microvials (Microbiotech/se AB, Sweden; 4001029) using an automated fraction collector (UV 8301501, TSE, Univentor, Malta). After collection of three basal samples, at t=0 minutes, drug of interest was administered per os. Eight additional samples were collected after compound administration. All samples were stored at −80° C. until off-line analysis.
In parallel, blood samples (50 μL) were taken from the jugular vein through the cannula. These samples were collected at specified intervals into vials containing 5 μL heparin (500 IE/mL in saline). The samples were mixed by inverting the tubes and, subsequently, centrifuged at 4000 rpm (1500×g) for 10 min at 4° C. The supernatant was stored as plasma in 1.5 mL Eppendorf vials (Sarstedt, Germany) at −80° C. until off-line analysis.
At the end of the experiment, the animals were euthanized and terminal brain tissue was collected for visual histological verification of the probe positions.
PK was measured for GP-04, GP-05, GP-07, GP-R1 and GP-P1 in the PFC (prefrontal cortex) and plasma of wild type C56Bl/6 mice by CRO Brainsonline.

[5] = tested on: cerebral extracellular lactate; assay: In vivo pharmacodynamics: lactate biosensors in cortex; parameters: species or system mouse; details: 10 mg/kg per os
Protocol: Extracellular levels of lactate were monitored in vivo using lactate biosensors (Pinnacle Technology), according to the manufacturer's instructions. Cannulae were surgically implanted in mice cerebral cerebral motor cortex areas M1/M2 (coordinates: +1.94 mm (to bregma), lateral −1.4 mm (to mideline), ventral −1.0 mm (to dura)) 5-7 days before administration of the compounds. Drugs were administered per os as previously described, and cerebral levels of extracellular lactate were dynamically recorded for 6 hours. Mice were administered vehicle alone first, followed 3 hours later by vehicle or drug (10 or 100 mg/kg). Area Under the Curve (AUC) quantifying the fluctuations of extracellular lactate concentrations for each of the compound tested was calculated using Graphad Prism and the ratio of AUC after drug over Vehicle administration was calculated. Groups of 8 male mice were used for each condition.
To measure biological effect of lead molecules in vivo in the brain, lactate levels were quantified after administration of the drug by using lactate biosensors implanted in the cortex of freely moving mice.

[6] = tested on: C57Bl/6 male and female mice; assay: In vivo chronic toxicity (28 days)
Protocol: During this period, clinical symptoms and weight were recorded.
Chronic toxicity was assessed.

C57Bl/6 mice [7] = assay: Open field test (OFT); assay type: in vivo, mouse; details: 100 mg/kg per os, 1.5 hr
Protocol: as §1
OFT is a test used to identify molecules that could modulate mouse activity, which might affect results in the FST. 1.5 hr after a single oral molecules administration, mice are placed in a 39 cm (long)×33 cm (large)×33 cm (high) open box and their activity is videotaped for 10 minutes. Mouse activity is then automatically scored using Ethovision pro video tracking system (Noldus).

primary astrocytes = assay: High throughput screening (HTS) for lactate secretion: acidification of extracellular medium (SNARF5); assay type: cell-based, mouse; details: Appendix I; primary screening confirmation (SNARF5)
Protocol: Primary cultures of cerebrocortical astrocytes were obtained from 1-2-day-old OF1 mouse pups (Charles River Laboratories). Briefly, cortices were isolated and minced in small pieces under a dissecting microscope. The cells were incubated for 30 min at 37° C. in a solution containing 20 U/ml of papain enzyme (Worthington Biochemical), L-cysteine 1 mM (Sigma), and 10 kU/ml DNase I (Worthington Biochemical) for an enzymatic dissociation. […]
Secretion of lactate in a high-throughput screening (HTS) fashion was measured indirectly through the acidification of extracellular medium. […]
After 90 min stimulation, fluorescence was read at exc. […] The ratio of fluorescence between 630 nm and 580 emission values, which represents extracellular pH, was calculated.
In each plate, 8 wells were used for negative controls (DMSO) and 8 wells were used for positive controls (CCCP 2 uM in DMSO). Z prime values were calculated for each of the plates tested and values<0 were discarded.
The average and SD of compounds' values tested in duplicates were calculated, and compound was noted as HIT when the difference between compound's average and negative control's average was greater than three times the sum of compound's SD and negative controls' SD. […] Scores are calculated as the % of activity compared to the positive control in each plate (which is 100%). […]

astrocytes [8] = assay: Extracellular lactate quantification; assay type: cell-based, mouse; parameters: Score_LACTATE / Score Lact.: scale not given here; details: Appendix I; secondary screening, dosage of extracellular lactate
Protocol: Primary cultures of cerebrocortical astrocytes were obtained from 1-2-day-old OF1 mouse pups (Charles River Laboratories). Briefly, cortices were isolated and minced in small pieces under a dissecting microscope. The cells were incubated for 30 min at 37° C. in a solution containing 20 U/ml of papain enzyme (Worthington Biochemical), L-cysteine 1 mM (Sigma), and 10 kU/ml DNase I (Worthington Biochemical) for an enzymatic dissociation. Papain activity was stopped by the addition of fetal calf serum (FCS) to the solution, and a single-cell suspension was then obtained by mechanical dissociation, which consisted in cells trituration in a DMEM (D7777, Sigma-Aldrich) medium (supplemented with 44 mm NaHCO3, and 10 ml/L antibiotic/antimycotic solution) containing 10% FCS. The cells were seeded at an average density of 6×10^4 cells/cm^2 in poly-D-lysine-coated 96, 12 or 6-well culture plates, depending on their use, and incubated at 37° C. in a humidified atmosphere containing 5% CO2/95% air. Culture medium was renewed twice per week. Cells were stimulated and harvested between DIV14 and DIV17, when confluence and cell growth were optimal.
Secretion of L-lactate was determined in the extracellular medium of 96-well plated astrocytes after 90 min stimulation (at 37° C., in 5% CO2/95% air conditions) with the drug of interest. The stimulation medium was composed of D5030 medium (completed with D-glucose 5 mM and 44 mM sodium bicarbonate) for 90 min in concentrations ranging from 0 to 100 μM.
Briefly, 200 μl of a Glycine (Sigma)-Semicarbazide (Acros) 0.2M pH 10 buffer containing 3 mM NAD (Roche) and LDH 14 U/ml (Roche) was added to each well of a 96-well plate containing 30 μl aliquots complemented with 20 μl fresh complete D5030 medium. Samples were incubated at 37° C. for 1 h. After samples cooled down at room temperature, the fluorescence intensity (340 nm excitation/450 nm emission) that represents the amount of NADH produced was measured, and lactate concentration values were determined from a standard curve of L-lactate.
Statistical analysis consisted in ANOVA followed by Fisher LSD post-hoc test for pair-wise comparisons.
Levels of lactate secreted by astrocytes were measured in the extracellular medium at 90 min after stimulation with hits (molecules) from the CDC54K library.

SMILES | Glycogen (statistical significance of glycogen degradation) (astrocytes [1]) | grip strength (C57Bl/6 mice [2]) | time spent immobile (C57Bl/6 mice [3]) | levels in the PFC [4] | cerebral lactate (AUC ratio vs vehicle) [5] | chronic toxicity (toxic or safe) ([6]; 10 mg/kg per os once a day, 28 days) | pathological analysis ([6]; chronic 10 mg/kg, liver, kidney) | activity (open field) (C57Bl/6 mice [7]) | Score_SNARF (primary astrocytes) | Score_LACTATE (astrocytes [8])
COc1ccc(Cc2nccc3cc(OC)c(OC)cc23)cc1OC [Papaverine hydrochloride] | **** (****p<0.0001) | does not affect | significant reduction | at therapeutic range (100 nM to 1 uM) and sustained over several hours | Significant increase | safe | minor treatment-related effects | does not affect |  | 
O=C(C[n+]1cc(-c2ccccc2)n2c1CCC2)c1ccc(Br)cc1.[Br-] [T0502-5560] |  |  |  |  |  |  |  |  | 0.8504 | 0.8524
